Laboratory results as given in patent publication US20250144125A1 (priority 2021, published 2025).
Like-named read-outs stand apart in the source and are kept apart here. Marks after values point to notes of the source that are not given here.

How the values were obtained:
[1] = system: measles virus (CC strain); assay: microbe, parasite or virus in culture; assay type: cell-based
in vitro [2] = details: African green monkey
[3] = system: human norovirus genogroup I NoV (Norwalk virus replicon) in HG23 cells; assay: Human norovirus antiviral assay, qRT PCR in HG23 NoV replicon cells; assay type: cell-based; details: for EC50: Norwalk virus
[4] = Cytotoxicity in the human norovirus replicon assay (HG23 cells); details: human, HG23 Nov replicon cells
MERS-CoV (EMC strain) = assay: microbe, parasite or virus in culture; assay type: cell-based
[5] = system: tacaribe virus (TRVL11573 strain); assay: microbe, parasite or virus in culture; assay type: cell-based; details: read-out: Tacaribe virus EC50 TRVL 11573 strain
[6] = system: yellow fever virus (YFV 17D strain); assay: microbe, parasite or virus in culture; assay type: cell-based
[7] = system: enterovirus-71 (Tainan/4643/98 strain); assay: organism not typed; assay type: cell-based
Vero cells = details: African green monkey
in vitro [8] = details: African green monkey, Tacaribe virus CC50 Vero
in vitro [9] = details: human
[10] = system: chikungunya virus (S27 strain); assay: microbe, parasite or virus in culture; assay type: cell-based
[11] = system: dengue virus 2 (New Guinea C strain); assay: microbe, parasite or virus in culture; assay type: cell-based
[12] = system: influenza A (H1N1) virus (California/07/2009 strain); assay: microbe, parasite or virus in culture; assay type: cell-based; details: read-out: EC50 California/07/2009 strain
in vitro [13] = details: dog, CC50 MDCK
[14] = Measles morbillivirus, Vero 76, read-out: Measles EC50 CC strain
[15] = HG23 Nov replicon cells, qRT PCR intracellular RNA, read-out: EC50 human norovirus
[16] = read-out: Measles EC50 CC strain
[17] = Mammarenavirus tacaribeense, Vero
[18] = Yellow fever virus, Huh-7, read-out: Yellow fever virus EC50 YFV 17D strain
[19] = read-out: Yellow fever virus EC50 YFV 17D strain
[20] = Vero 76, read-out: EC50 enterovirus-71
[21] = read-out: MERS-CoV CC50 Vero 76, Neutral Red, MERS-CoV screen
[22] = read-out: Yellow fever virus CC50 Huh7, Neutral Red, YFV screen
[23] = Middle East respiratory syndrome-related coronavirus, Vero 76, read-out: MERS-CoV EC50 EMC strain
[24] = Chikungunya virus, Vero 76, read-out: EC50 chikungunya virus
[25] = read-out: EC50 chikungunya virus
[26] = Dengue virus, Huh-7, read-out: EC50 dengue virus 2

Compound | EC50 [1, 14] | CC50 (in vitro [2]; Measles CC50 Vero 76) | EC50 [3, 15] [µM] | CC50 at 3 days [4] [µM] | EC50 [1, 16] [µM] | EC50 [5, 17] [µM] | EC50 [5] [µM] | EC50 [6, 18] [µM] | EC50 [6, 19] [µM] | EC50 [7, 20] [µM] | EC50 ([7]; read-out: EC50 enterovirus-71) [µM] | CC50 (Vero 76 cells; [21]) [µM] | CC50 (Vero cells) [µM] | CC50 (Huh7 cells; human) [µM] | CC50 (Huh7 cells; [22]) [µM] | CC50 (in vitro [2]; MERS-CoV CC50 Vero 76) [µM] | CC50 (in vitro [8]) [µM] | CC50 (in vitro [9]; Yellow fever virus CC50 Huh7) [µM] | EC50 [10, 24] [µM] | EC50 [11, 26] [µM] | further results
Nc1ccn([C@@H]2O[C@H](CO)[C@@H](O)[C@H]2F)c(=O)n1 [2′-Fluoro-2′-deoxycytidine, 2′-fluoro-2′-deoxycytidine, reference compound] | 1 µg/mL | > 100 µg/mL |  |  |  |  |  |  |  |  |  |  |  |  |  |  |  |  |  |  | Measles EC50 CC strain [1]: 0.95^d μg/mL
C[C@@]1(O)[C@H](O)[C@@H](CO)O[C@H]1n1ccc(N)nc1=O [2′C Methyl Cytidine, 2′-C-Methylcytidine, reference compound] |  |  | 1.57 | > 25 |  |  |  |  |  |  |  |  |  |  |  |  |  |  |  |  | 
C=C(OCC)c1ncnc2c1ccn2[C@@H]1O[C@H](CO)[C@@H](O)[C@H]1O [3.1b, 6-(1-Ethoxyvinyl)-9-β-D-ribofuranosyl-7-deazapurine] | > 100 µM | > 100 µM |  | 60.5 | 64 | 44 | 39 | > 28 | > 22 | > 84 | 90 | 86 | 99 | 8.6 | 22 | 52 | 100 | 28 |  |  | activity against MERS-CoV in words (MERS-CoV (EMC strain)): moderately active with low selectivity index; EC50 ([3]; HG23, read-out: EC50 human norovirus): 0.007 µM; CC50 (Vero 76 cells; African green monkey): 100 µM; CC50 (in vitro [9]; CC50): 8.5 µM
OC[C@H]1O[C@@H](n2ccc3c(C#Cc4ccc(F)cc4)ncnc32)[C@H](O)[C@@H]1O [3.1h, 6-((4-Fluorophenyl)ethynyl)-9-β-D-ribofuranosyl-7-deazapurine] | 6.2 µM | 28 µM | < 0.001 | 38.5 | 7.1 | 24 | > 23 | 2.2 | 2.3 | > 39 | > 46 | 29 | 23 |  | 30 | 32 | 24 | 32 | > 36 | > 32 | EC50 (MERS-CoV (EMC strain); [23]): > 32 µM; EC50 (MERS-CoV (EMC strain); read-out: MERS-CoV EC50 EMC strain): > 29 µM; activity against human norovirus in words [3]: low nanomolar activity and high selectivity; EC50 [10, 25]: 32 µM; EC50 ([11]; read-out: EC50 dengue virus 2): > 29 µM; CC50 (in vitro [2]; CC50): 36 µM
OC[C@H]1O[C@@H](n2ccc3c(C#Cc4cccc(F)c4)ncnc32)[C@H](O)[C@@H]1O [3.1i, 6-((3-Fluorophenyl)ethynyl)-9-β-D-ribofuranosyl-7-deazapurine] | 3.2 µM | 24 µM |  |  | 3.6 | > 12 | > 11 | 1.2 | 0.85 | > 32 | > 28 |  | 11 | 22 | 30 | 32 | 12 | 32 | > 32 | 2.6 | EC50 (MERS-CoV (EMC strain); [23]): > 32 µM; EC50 [10, 25]: > 30 µM; EC50 ([11]; read-out: EC50 dengue virus 2): 2.7 µM; CC50 (in vitro [9]; CC50): 24 µM
C#Cc1cn([C@@H]2O[C@H](CO)[C@@H](O)[C@H]2O)c2ncnc(CC)c12 [3.1l, 6-Ethyl-7-ethynyl-9-β-D-ribofuranosyl-7-deazapurine] | 72 µM |  | 0.393 | 0.455 | > 100 | > 100 |  | > 100 | > 92 | > 100 |  | > 100 |  | 51 | 92 | > 100 |  | > 100 | > 100 | > 100 | EC50 ([12]; Influenza A virus, H1N1, MDCK): 0.34 µM; EC50 [12]: 0.52 µM; activity against human norovirus in words [3]: no promising activity; EC50 ([11]; read-out: EC50 dengue virus 2): > 51 µM; CC50 (in vitro [13]): > 100 µM
